From patent US6794396B2, “Substituted pyridines useful for inhibiting cholesteryl ester transfer protein activity” (Pharmacia Corporation, priority 1998, dated 2004)

Each molecule was assayed against T1, CETP (Homo sapiens, UniProt P11597) (assay: CETP activity in vitro: transfer of [3H]CE from HDL donor to LDL acceptor particles). Details: @ 100 μm; footnotes A and B of Table 6.
T1 construct: made in house; host or cells: CHO cells (serum-free conditioned medium)
T1 sequence (P11597 18-493): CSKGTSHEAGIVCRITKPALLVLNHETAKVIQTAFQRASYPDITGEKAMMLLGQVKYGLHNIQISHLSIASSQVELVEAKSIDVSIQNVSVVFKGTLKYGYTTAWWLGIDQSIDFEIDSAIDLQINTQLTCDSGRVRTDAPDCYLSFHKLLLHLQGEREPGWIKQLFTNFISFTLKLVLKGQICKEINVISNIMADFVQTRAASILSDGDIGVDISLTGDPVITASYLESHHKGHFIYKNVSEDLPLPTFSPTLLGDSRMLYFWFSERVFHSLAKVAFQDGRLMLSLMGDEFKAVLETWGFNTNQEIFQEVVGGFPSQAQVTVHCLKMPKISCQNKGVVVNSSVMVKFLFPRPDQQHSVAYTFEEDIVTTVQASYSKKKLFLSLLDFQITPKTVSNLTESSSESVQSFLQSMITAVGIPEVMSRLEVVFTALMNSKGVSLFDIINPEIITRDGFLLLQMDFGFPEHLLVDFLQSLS
Assay type: biochemical
Description: The ability of compounds to inhibit CETP were assessed using an in vitro assay that measured the rate of transfer of radiolabeled cholesteryl ester ([^3H]CE) from HDL donor particles to LDL acceptor particles. Details of the assay are provided by Glenn et al. (“Quantification of Cholesteryl Ester Transfer Protein (CETP): A) CETP Activity and B) Immunochemical Assay of CETP Protein,” Meth. Enzymol., Glenn and Melton (Meth. Enzymol., 263, 339-351 (1996), which is incorporated herein by reference). CETP was obtained from the serum-free conditioned medium of CHO cells transfected with a cDNA for CETP (Wang, S. et al. J. Biol Chem. 267, 17487-17490 (1992), which is incorporated herein by reference).
To measure CETP activity, [^3H]CE-labeled HDL, LDL, CETP and assay buffer (50 mM tris(hydroxymethyl)amino-methane, pH 7.4; 150 mM sodium chloride; 2 mM ethylenediamine-tetraacetic acid; 1% bovine serum albumin) were incubated in a volume of 200 μl, for 2 hours at 37° C. in 96 well plates. LDL was differentially precipitated by the addition of 50 μl of 1% (w/v) dextran sulfate/0.5 M magnesium chloride, mixed by vortex, and incubated at room temperature for 10 minutes The solution (200μl) was transferred to a filter plate (Millipore). After filtration, the radioactivity present in the precipitated LDL was measured by liquid scintillation counting.
This value was defined as the IC50.

Row | SMILES | CE transferred
1 | COC(=O)c1c(C(F)F)nc(C(F)(F)F)c(CSc2nccn2C)c1CC(C)C [Compound 188, Methyl 5-[(1-Methylimidazol-2-yl)thiomethyl]-2-(difluoromethyl)-4-(2-methylpropyl)-6-(trifluoromethyl)-3-pyridinecarboxylate] | ^A90% CE transferred @ 100 μm.
2 | COC(=O)c1c(C(F)F)nc(C(F)(F)F)c(CSc2nnnn2C)c1CC(C)C [Compound 189, Methyl 5-[(1-Methyltetrazol-5-yl)thiomethyl]-2-(difluoromethyl)-4-(2-methylpropyl)-6-(trifluoromethyl)-3-pyridinecarboxylate] | ^A90% CE transferred @ 100 μm.
3 | COC(=O)c1c(C(F)F)nc(C(F)(F)F)c(CSc2ccc(NC(C)=O)cc2)c1CC(C)C [Compound 204, Methyl 5-[(4-(Acetylamino)phenyl)thiomethyl]-2-(difluoromethyl)-4-(2-methylpropyl)-6-(trifluoromethyl)-3-pyridinecarboxylate] | ^B80% CE transferred @ 100 μm.

Same assay, conditions: IC50(μm), 50% inhibition of [3H]CE transfer from HDL to LDL, 2 hours at 37° C.

Row | SMILES | IC50 [µM]
4 | COC(=O)c1c(C(F)F)nc(C(F)(F)F)c(C(=O)Oc2ccccc2C(C)C)c1CC(C)C [Compound 175, 3-Methyl 5-(2-Isopropylphenyl) 2-(Difluoromethyl)-4-(2-methylpropyl)-6-(trifluoromethyl)-3,5-pyridicarboxylate] | > 100

Same assay, conditions: IC50, Table 5, compounds of formula T-5

Row | SMILES | IC50 [µM]
5 | COC(=O)c1c(C(F)F)nc(C(F)(F)F)c(SC(=O)c2c(C(F)(F)F)nc(C(F)F)c(C(=O)OC)c2CC(C)C)c1CC(C)C [Compound 183, Methyl 5-{[2-(Difluoromethyl)-4-(2-methylpropyl)-3-(methoxycarbonyl)-6-(trifluoromethyl)-5-pyridyl]carbonylthio}-2-(difluoromethyl)-4-(2-methylpropyl)-6-(trifluoromethyl)-3-pyridinecarboxylate] | 50

Same assay, conditions: IC50, Table 6, compounds of formula T-6

Row | SMILES | IC50 [µM]
6 | COC(=O)c1c(C(F)F)nc(C(F)(F)F)c(CSc2ccc(Cl)cc2)c1CC(C)C [Compound 185, Methyl 5-[(4-Chlorophenyl)thiomethyl]-2-(difluoromethyl)-4-(2-methylpropyl)-6-(trifluoromethyl)-3-pyridinecarboxylate] | 10
7 | COC(=O)c1c(C(F)F)nc(C(F)(F)F)c(CSc2nccn2C)c1CC(C)C [Compound 188, Methyl 5-[(1-Methylimidazol-2-yl)thiomethyl]-2-(difluoromethyl)-4-(2-methylpropyl)-6-(trifluoromethyl)-3-pyridinecarboxylate] | > 100
8 | COC(=O)c1c(C(F)F)nc(C(F)(F)F)c(CSc2ccc(OC(F)(F)F)cc2)c1CC(C)C [Compound 191] | 10
9 | COC(=O)c1c(C(F)F)nc(C(F)(F)F)c(CSc2ccc([N+](=O)[O-])cc2)c1CC(C)C [Compound 198, Methyl 5-[(4-Nitrophenyl)thiomethyl]-2-(difluoromethyl)-4-(2-methylpropyl)-6-(trifluoromethyl)-3-pyridinecarboxylate] | 7

Same assay, conditions: Table 5, compounds of formula T-5; read-out: IC50

Row | SMILES | IC50 [µM]
10 | COC(=O)c1c(C(F)F)nc(C(F)(F)F)c(CSc2c(C(F)(F)F)nc(C(F)F)c(C(=O)OC)c2CC(C)C)c1CC(C)C [Compound 182, Methyl 5-{[3-(Carbomethoxy)-2-(difluoromethyl)-4-isobutyl-6-(trifluoromethyl)-5-pyridyl]thiomethyl}-2-(difluoromethyl)-4-isobutyl-6-(trifluoromethyl)-3-pyridinecarboxylate] | 19

Same assay, conditions: Table 6, compounds of formula T-6; read-out: IC50

Row | SMILES | IC50 [µM]
11 | COC(=O)c1c(C(F)F)nc(C(F)(F)F)c(CSc2cccc(Br)c2)c1CC(C)C [Compound 184, Methyl 5-[(3-Bromophenyl)thiomethyl]-2-(difluoromethyl)-4-(2-methylpropyl)-6-(trifluoromethyl)-3-pyridinecarboxylate] | 30
12 | COC(=O)c1c(C(F)F)nc(C(F)(F)F)c(CSc2c(F)c(F)cc(F)c2F)c1CC(C)C [Compound 186, Methyl 5-[(2,3,5,6-Tetrafluorophenyl)thiomethyl]-2-(difluoromethyl)-4-(2-methylpropyl)-6-(trifluoromethyl)-3-pyridinecarboxylate] | 50
13 | COC(=O)c1c(C(F)F)nc(C(F)(F)F)c(CSc2cc(C(C)(C)C)cc(C(C)(C)C)c2)c1CC(C)C [Compound 187, Methyl 5-[(3,5-Di-t-butylphenyl)thiomethyl]-2-(difluoromethyl)-4-(2-methylpropyl)-6-(trifluoromethyl)-3-pyridinecarboxylate] | 40
14 | COC(=O)c1c(C(F)F)nc(C(F)(F)F)c(CSc2nnnn2C)c1CC(C)C [Compound 189, Methyl 5-[(1-Methyltetrazol-5-yl)thiomethyl]-2-(difluoromethyl)-4-(2-methylpropyl)-6-(trifluoromethyl)-3-pyridinecarboxylate] | > 100
15 | COC(=O)c1c(C(F)F)nc(C(F)(F)F)c(CSc2nc3ccc([N+](=O)[O-])cc3[nH]2)c1CC(C)C [Compound 190, Methyl 5-[(5-Nitrobenzimidazol-2-yl)thiomethyl]-2-(difluoromethyl)-4-(2-methylpropyl)-6-(trifluoromethyl)-3-pyridinecarboxylate] | 25
16 | COC(=O)c1c(C(F)F)nc(C(F)(F)F)c(CSc2ccc3ccccc3n2)c1CC(C)C [Compound 192, Methyl 5-[(Quinolin-2-yl)thiomethyl]-2-(difluoromethyl)-4-(2-methylpropyl)-6-(trifluoromethyl)-3-pyridinecarboxylate] | 40
17 | COC(=O)c1c(C(F)F)nc(C(F)(F)F)c(CSc2ccc(Br)cc2)c1CC(C)C [Compound 193, Methyl 5-[(4-Bromophenyl)thiomethyl]-2-(difluoromethyl)-4-(2-methylpropyl)-6-(trifluoromethyl) -3-pyridinecarboxylate] | 20
18 | COC(=O)c1c(C(F)F)nc(C(F)(F)F)c(CSc2c(F)c(F)c(F)c(F)c2F)c1CC(C)C [Compound 194, Methyl 5-[(Pentafluorophenyl)thiomethyl]-2-(difluoromethyl)-4-(2-methylpropyl)-6-(trifluoromethyl)-3-pyridinecarboxylate] | 30
19 | COC(=O)c1c(C(F)F)nc(C(F)(F)F)c(CSc2cc(Cl)ccc2Cl)c1CC(C)C [Compound 195, Methyl 5-[(2,5-Dichlorophenyl)thiomethyl]-2-(difluoromethyl)-4-(2-methylpropyl)-6-(trifluoromethyl)-3-pyridinecarboxylate] | 50
20 | COC(=O)c1c(C(F)F)nc(C(F)(F)F)c(CSc2c(F)c(F)c(C(F)(F)F)c(F)c2F)c1CC(C)C [Compound 196, Methyl 5-[(2,3,5,6-Tetrafluoro-4-(trifluoromethyl)phenyl)thiomethyl]-2-(difluoromethyl)-4-(2-methylpropyl)-6-(trifluoromethyl)-3-pyridinecarboxylate] | 20
21 | COC(=O)c1c(C(F)F)nc(C(F)(F)F)c(CSc2nccc(C)n2)c1CC(C)C [Compound 197, Methyl 5-[(4-Methylpyrimidin-2-yl)thiomethyl]-2-(difluoromethyl)-4-(2-methylpropyl)-6-(trifluoromethyl)-3-pyridinecarboxylate] | 60
22 | COC(=O)c1c(C(F)F)nc(C(F)(F)F)c(CSc2ccc(OC)cc2)c1CC(C)C [Compound 199, Methyl 5-[(4-Methoxyphenyl)thiomethyl]-2-(difluoromethyl)-4-(2-methylpropyl)-6-(trifluoromethyl)-3-pyridinecarboxylate] | 20
23 | COC(=O)c1c(C(F)F)nc(C(F)(F)F)c(CSc2ccccc2Cl)c1CC(C)C [Compound 200, Methyl 5-[(2-Chlorophenyl)thiomethyl]-2-(difluoromethyl)-4-(2-methylpropyl)-6-(trifluoromethyl)-3-pyridinecarboxylate] | 40
24 | COC(=O)c1c(C(F)F)nc(C(F)(F)F)c(CSc2c(Cl)cccc2Cl)c1CC(C)C [Compound 201, Methyl 5-[(2,6-Dichlorophenyl)thiomethyl]-2-(difluoromethyl)-4-(2-methylpropyl)-6-(trifluoromethyl)-3-pyridinecarboxylate] | 30
25 | COC(=O)c1c(C(F)F)nc(C(F)(F)F)c(CSc2cccc3cccnc23)c1CC(C)C [Compound 202, Methyl 5-[(Quinolin-8-yl)thiomethyl]-2-(difluoromethyl)-4-(2-methylpropyl)-6-(trifluoromethyl)-3-pyridinecarboxylate] | 80
26 | COC(=O)c1c(C(F)F)nc(C(F)(F)F)c(CSc2ncccn2)c1CC(C)C [Compound 203, Methyl 5-[(Pyrimidin-2-yl)thiomethyl]-2-(difluoromethyl)-4-(2-methylpropyl)-6-(trifluoromethyl)-3-pyridinecarboxylate] | 70
27 | COC(=O)c1c(C(F)F)nc(C(F)(F)F)c(CSc2ccc(NC(C)=O)cc2)c1CC(C)C [Compound 204, Methyl 5-[(4-(Acetylamino)phenyl)thiomethyl]-2-(difluoromethyl)-4-(2-methylpropyl)-6-(trifluoromethyl)-3-pyridinecarboxylate] | > 100
28 | COC(=O)c1c(C(F)F)nc(C(F)(F)F)c(CSc2nc3ccccc3o2)c1CC(C)C [Compound 205, Methyl 5-[(Benzoxazol-2-yl)thiomethyl]-2-(difluoromethyl)-4-(2-methylpropyl)-6-(trifluoromethyl)-3-pyridinecarboxylate] | 20
